Data: article PMC7106896, “Synthesis and biological evaluation of 2-(4-methylsulfonyl phenyl) indole derivatives: multi-target compounds with dual antimicrobial and anti-inflammatory activities” (BMC Chemistry, 2020)
Values belong to the compound of their own block, whether it stands above or below them.

Experiments:
[1] = tested on: carrageenan-induced rat paw edema; assay: Carrageenan-induced rat paw edema assay; type: in vivo; settings: for Edema thickness (mm) ± SEM: n = 4
Procedure: Pretreatment of rats with compounds 7a–k, 8a–c, and 9a–c before injection with carrageenan in rat paw which induces inflammation and then the percentage of paw edema reduction was measured after certain hours according to previously reported procedures.

[2] = tested on: methicillin-resistant Staphylococcus aureus (ATCC 43300); assay: Antimicrobial screening (CO-ADD), growth inhibition at single concentration; type: cell-based; settings: ATCC 43300 / MRSA, at 32 µg/mL concentration, read-out: growth inhibition % Sa (MRSA)
Procedure: (§1) The antimicrobial study was performed by CO-ADD (The Community for Antimicrobial Drug Discovery), funded by the Wellcome Trust (UK) and The University of Queensland (Australia). Evaluation of all synthesized compounds for their antimicrobial activities was done against five pathogenic bacteria, methicillin-resistant Staphylococcus aureus (ATCC 43300) as Gram-positive bacteria, Escherichia coli (ATCC 25922), Klebsiella pneumonia (ATCC 700603), Acinetobacter baumannii (ATCC 19606) and Pseudomonas aeruginosa (ATCC 27853) as Gram-negative bacteria and antifungal activity against two pathogenic fungal strains Candida albicans (ATCC 90028) and Cryptococcus neoformans var. grubii (H99; ATCC 208821) (Table 1).

Ovine COX-1 = molecular target: T1, Ovine COX-1 (Ovis aries, UniProt P05979); assay: In vitro COX inhibition colorimetric assay; type: biochemical
T1 construct: purchased Cayman Chemical, Ann Arbor, MI, USA 760111
T1 sequence (P05979 25-600): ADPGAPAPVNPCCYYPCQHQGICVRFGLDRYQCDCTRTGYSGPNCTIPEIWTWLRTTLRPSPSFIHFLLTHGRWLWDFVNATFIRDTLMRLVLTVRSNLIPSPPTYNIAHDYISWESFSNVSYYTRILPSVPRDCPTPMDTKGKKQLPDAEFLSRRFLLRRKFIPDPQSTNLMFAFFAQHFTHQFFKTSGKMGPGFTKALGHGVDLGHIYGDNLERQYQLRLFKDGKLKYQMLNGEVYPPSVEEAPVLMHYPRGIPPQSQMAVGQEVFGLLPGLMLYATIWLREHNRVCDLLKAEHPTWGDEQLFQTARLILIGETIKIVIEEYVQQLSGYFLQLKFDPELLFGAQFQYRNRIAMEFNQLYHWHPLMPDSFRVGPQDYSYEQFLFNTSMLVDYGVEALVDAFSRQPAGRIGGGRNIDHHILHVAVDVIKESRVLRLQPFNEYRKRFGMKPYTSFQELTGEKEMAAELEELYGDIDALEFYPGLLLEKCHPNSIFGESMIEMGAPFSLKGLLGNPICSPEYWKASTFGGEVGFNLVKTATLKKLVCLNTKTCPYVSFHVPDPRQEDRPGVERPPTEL

human recombinant COX-2 = assay: In vitro COX inhibition colorimetric assay; type: biochemical; settings: COX-1 IC50/COX-2 IC50
[3] = tested on: Candida albicans (ATCC 90028); assay: Antifungal screening (CO-ADD), growth inhibition at single concentration; type: cell-based; settings: ATCC90028, at 32 µg/mL concentration, read-out: growth inhibition % Ca (C. albicans)
Procedure: as §1

[4] = tested on: Klebsiella pneumonia (ATCC 700603); assay: Antimicrobial screening (CO-ADD), growth inhibition at single concentration; type: cell-based; settings: Klebsiella pneumoniae, ATCC700603; at 32 µg/mL concentration; read-out: growth inhibition % Kp (K. pneumoniae)
Procedure: as §1

[5] = tested on: Acinetobacter baumannii (ATCC 19606); assay: as above; type: cell-based; settings: ATCC19606, at 32 µg/mL concentration, read-out: growth inhibition % Ab (A. baumannii)
Procedure: as §1

Compound: Cc1ccc(-c2cc(C(F)(F)F)nn2-c2ccc(S(N)(=O)=O)cc2)cc1 [Celecoxib, celecoxib, reference compound]
- Edema inhibition % ([1]; 1 h): 68.9%
- Edema thickness (mm) ± SEM ([1]; 1 h): 0.810 ± 0.074 mm
- Edema inhibition % ([1]; 3 h): 95.5%
- Edema thickness (mm) ± SEM ([1]; 3 h): 0.100 ± 0.009 mm
- Edema inhibition % ([1]; 6 h): 94.7%
- Edema thickness (mm) ± SEM ([1]; 6 h): 0.100 ± 0.005 mm

Compound: Cc1ccc2[nH]c(-c3ccc(S(C)(=O)=O)cc3)c(/C=N/Nc3ccc(S(N)(=O)=O)cc3)c2c1 [Compound 7e, 4-(2-((5-Methyl-2-(4-(methylsulfonyl)phenyl)-1H-indol-3-yl)methylene) hydrazine-yl) benzenesulfonamide]
- Edema inhibition % ([1]; 1 h): 53.9%
- Edema thickness (mm) ± SEM ([1]; 1 h): 1.209 ± 0.11 mm
- Edema inhibition % ([1]; 3 h): 71.1%
- Edema thickness (mm) ± SEM ([1]; 3 h): 0.645 ± 0.01 mm
- Edema inhibition % ([1]; 6 h): 79.9%
- Edema thickness (mm) ± SEM ([1]; 6 h): 0.381 ± 0.007 mm
- inhibition at 32 µg/mL [5]: 43.6%
- inhibition at 32 µg/mL [2]: 7.58%
- IC50 (Ovine COX-1): 9.7 µM
- melting point: 186 to 188 °C
- Selectivity index (SI) (human recombinant COX-2): 31.29
- inhibition at 32 µg/mL [3]: 28.7%

Compound: COc1ccc2c(c1)c(CC(=O)O)c(C)n2C(=O)c1ccc(Cl)cc1 [Indomethacin, indomethacin, reference compound]
- Edema inhibition % ([1]; 1 h): 70.7%
- Edema thickness (mm) ± SEM ([1]; 1 h): 0.768 ± 0.050 mm
- Edema inhibition % ([1]; 3 h): 96%
- Edema thickness (mm) ± SEM ([1]; 3 h): 0.075 ± 0.007 mm
- Edema inhibition % ([1]; 6 h): 96.6%
- Edema thickness (mm) ± SEM ([1]; 6 h): 0.075 ± 0.004 mm

Now from value to compound, other results behind:

- IC50 (Ovine COX-1): 10.6 µM
- melting point: 210 to 212 °C
Compound: CS(=O)(=O)c1ccc(-c2[nH]c3ccccc3c2-c2nc3cc(Cl)ccc3[nH]2)cc1 [Compound 8a, 5-Chloro-2-(2-(4-(methylsulfonyl)phenyl)-1H-indol-3-yl)-1H-benzo[d]imidazole]
- Edema inhibition % ([1]; 1 h): 52.5%
- Edema thickness (mm) ± SEM ([1]; 1 h): 1.246 ± 0.076 mm
- Edema inhibition % ([1]; 3 h): 58%
- Edema thickness (mm) ± SEM ([1]; 3 h): 0.937 ± 0.046 mm
- Edema inhibition % ([1]; 6 h): 56.4%
- Edema thickness (mm) ± SEM ([1]; 6 h): 0.826 ± 0.078 mm
- inhibition at 32 µg/mL [2]: 13.6%
- Selectivity index (SI) (human recombinant COX-2): 81.84
- inhibition at 32 µg/mL [3]: 7.71%

- IC50 (Ovine COX-1): 8.24 µM
- melting point: 212 to 214 °C
Compound: Cc1ccc2[nH]c(-c3ccc(S(C)(=O)=O)cc3)c(C=NO)c2c1 [Compound 9c, 5-Methyl-2-(4-(methylsulfonyl)phenyl)-1H-indole-3-carbaldehyde oxime]
- Edema inhibition % ([1]; 1 h): 55.2%
- Edema inhibition % ([1]; 3 h): 68.6%
- Edema thickness (mm) ± SEM ([1]; 3 h): 0.435 ± 0.033 mm
- Edema inhibition % ([1]; 6 h): 61.7%
- Edema thickness (mm) ± SEM ([1]; 6 h): 0.504 ± 0.009 mm
- inhibition at 32 µg/mL [4]: 1.19%
- inhibition at 32 µg/mL [5]: 33.7%
- Selectivity index (SI) (human recombinant COX-2): 34.33
- inhibition at 32 µg/mL [3]: 4.88%

- IC50 (Ovine COX-1): 10.8 µM
- melting point: 200 to 202 °C
Compound: CS(=O)(=O)c1ccc(-c2[nH]c3ccc(F)cc3c2C=NNc2ccc(F)cc2)cc1 [Compound 7j, 5-Fluoro-3-((2-(4-fluorophenyl)hydrazono)methyl)-2-(4-(methylsulfonyl)phenyl)-1H-indole]
- Edema inhibition % ([1]; 1 h): 64.3%
- Edema thickness (mm) ± SEM ([1]; 1 h): 0.936 ± 0.064 mm
- Edema inhibition % ([1]; 3 h): 78.6%
- Edema thickness (mm) ± SEM ([1]; 3 h): 0.477 ± 0.027 mm
- Edema inhibition % ([1]; 6 h): 71%
- Edema thickness (mm) ± SEM ([1]; 6 h): 0.549 ± 0.013 mm
- inhibition at 32 µg/mL [4]: 12.3%
- inhibition at 32 µg/mL [5]: 46.2%
- inhibition at 32 µg/mL [2]: 30.6%
- Selectivity index (SI) (human recombinant COX-2): 98.18
- inhibition at 32 µg/mL [3]: 1.91%

- IC50 (Ovine COX-1): 11.2 µM
- melting point: 217 to 219 °C
Compound: Cc1ccc2[nH]c(-c3ccc(S(C)(=O)=O)cc3)c(-c3nc4cc(Cl)ccc4[nH]3)c2c1 [Compound 8c, 5-Chloro-2-(5-methyl-2-(4-(methylsulfonyl)phenyl)-1H-indol-3-yl)-1H-benzo[d]imidazole]
- Edema inhibition % ([1]; 1 h): 67.9%
- Edema thickness (mm) ± SEM ([1]; 1 h): 0.842 ± 0.062 mm
- Edema inhibition % ([1]; 3 h): 71.9%
- Edema thickness (mm) ± SEM ([1]; 3 h): 0.627 ± 0.05 mm
- Edema inhibition % ([1]; 6 h): 74.2%
- Edema thickness (mm) ± SEM ([1]; 6 h): 0.489 ± 0.032 mm
- inhibition at 32 µg/mL [2]: 4.62%
- Selectivity index (SI) (human recombinant COX-2): 93.58
- inhibition at 32 µg/mL [3]: 1.65%
